The values that follow come from patent US20220133672A1, “NOTCH INHIBITORS FOR THE TREATMENT OF VASCULAR MALFORMATIONS” (The University of North Carolina at Chapel Hill, priority 2018, published 2022).

Data set [1] concerns human lymphatic endothelial cells (hLECs). As to the kind of experiment: Cell viability (trypan blue, Countess automated cell counter), hLEC. Format: cell-based. The settings on record: for change of hLEC viability at concentrations less than 20 μM: concentrations lower than 20 μM, vs untreated controls. The procedure:
(§1) Dermal human lymphatic endothelial cells (hLECs) from human neonates (HMVEC-dLyNeo-Der, Lonza CC-2812) and human umbilical venous endothelial cells (HUVEC, Lonza CC-2517) were used for in vitro assays (below) within 8 passages and maintained in EGM-2MV bullet kit (Lonza CC3202) and EGM bullet kit media respectively.
(§2) Cell viability: To examine the effect of GSI on cell viability, hLEC and HUVEC cultures were incubated with effects of graded concentrations [2, 4, 6, 8, 10, 20 μM] of DAPT (Selleckchem, S2215) or RO4909297 (Selleckchem, S1575) [2-20 μM] for 24-72 hours. The percentage of viable cells was determined using the Countess automated cell counter (Thermofisher, C10227). Briefly, 80-90% confluent HUVEC and hLEC cultures were trypsinized, washed, and 10 μL of cell sample was mixed with an equal amount of 0.4% trypan blue stain and loaded onto the counting chamber.

Experiment in data set [2]: as above
Format: cell-based, human. Conditions: human; 20 μM, hLEC; read-out: reduction of hLEC viability. As for the experimental part:
as §1, §2

For data set [3], the system named is Notch target gene Hey1 in HUVEC. As to the kind of experiment: Quantitative RT-PCR of Notch target gene Hey1 in HUVEC. Format: cell-based, human. Conditions: 24 hrs post treatment. As for the experimental part:
RNA was extracted from cultured HUVEC or hLEC cells either 24 hrs or 72 hrs post treatment respectively using TRIzol reagent (Ambion 15596026) followed by DNase (Promega M6101) treatment and cDNA prepared using iScript (BioRad 170-8890). Quantitative RT-PCR was done on StepOnePlus (ABI) using TaqMan Gene Expression Master Mix (ThermoFisher Scientific 4369016). Gene expression was assessed using human Single-tube assays (Thermo Fisher Scientific/Applied Biosystems): GAPDH (4310884E), ACTB (Hs99999903_m1) and HEY1 (Hs01114113_m1). Comparative ΔΔCT method was used to analyze relative gene expression with ExpressionSuite Software (Thermo Fisher Scientific). Expression was normalized to housekeeping controls GAPDH and ACTB.

In a further data set the test system is HUVEC migration. As to the kind of experiment: Scratch migration assay, HUVEC. Format: cell-based, human. The procedure: (§3) Scratch migration assay—Migration assay was performed as per Liang et al., 2007^36, HUVECs and hLECs were grown to confluence in 24 well dishes, and then scratched with a 200 μL pipette tip. […] Four fields per well were imaged at T=0 hrs and at T=24 hrs post-scratch or T=72 hrs for HUVECs and hLECs respectively using an Olympus IX-81 inverted microscope equipped with a QImaging Retiga 4000R camera at 4× magnification. The percent change in migration was calculated by measuring the open area of the scratch at the above mentioned time-points (ImageJ). Results shown are representative of four independent experiments with HUVECs and three for hLECs.

Another data set concerns hLEC migration. As to the kind of experiment: Scratch migration assay, hLEC. Format: cell-based, human. As for the experimental part: as §3
The subject of data set [4] is HUVEC tube/network formation. As to the kind of experiment: Tube formation assay in Matrigel matrix, HUVEC. Format: cell-based, human. The settings on record: for inhibition of angiogenesis in Notch-expressing HUVECs / number of branch points per field: HUVEC; for number of branch points per field: all concentrations (2-20 μM); for network formation by HUVEC: lowest concentration (2 μM), 24 hrs. As for the experimental part:
Tube formation assay—This assay was performed based on the protocol by Arnaoutova and Kleinman, 2010^37.

For the compound `CC(C)(C(=O)NCC(F)(F)C(F)(F)F)C(=O)N[C@@H]1C(=O)Nc2ccccc2-c2ccccc21` [RO4929097, 2,2-Dimethyl-N-[(7S)-6-oxo-6,7-dihydro-5H-dibenzo[b,d]azepin-7-yl]-N′-(2,2,3,3,3-pentafluoropropyl)malonamide], in data set [1], the “change of hLEC viability at concentrations less than 20 μM” value was “without significant changes”. In addition, the cytotoxicity at 20 μM in data set [2] was roughly 30%. Also, the “lowest concentration that downregulated Hey1 expression in HUVECs” value in data set [3] came out at 2 µM. Moreover, in the data set with HUVEC migration (6 μM), the “effectiveness on HUVEC migration compared with 8 μM DAPT” value is given as “more effective”. Further, the “effectiveness on hLEC migration compared with 8 μM DAPT” value with hLEC migration (6 μM, hLEC) was “more effective”. Further, the “reduction of migration in hLECs” value with hLEC migration (at lower concentrations compared to HUVECs) is listed as “greater than 50%”. Also, in data set [4], the “inhibition of angiogenesis in Notch-expressing HUVECs” value is reported as “effective in inhibiting angiogenesis”, the “number of branch points per field” value is listed as “significantly reduced” and the “network formation by HUVEC” value is given as “dramatically reduced”.
For `C[C@H](NC(=O)Cc1cc(F)cc(F)c1)C(=O)N[C@H](C(=O)OC(C)(C)C)c1ccccc1` [DAPT, N-[N-(3,5-difluorophenacetyl-L-alanyl)]-S-phenylglycine t-butyl ester], the “reduction of hLEC viability” value in data set [1] (20 μM, hLEC) is listed as roughly 30%. In addition, the “change of hLEC viability at concentrations less than 20 μM” value in data set [1] was “without significant changes”. Moreover, the “lowest concentration that downregulated Hey1 expression in HUVECs” value in data set [3] was found to be 4 µM. Moreover, the “HUVEC migration reduced to” value with HUVEC migration (8 μM, 24 hrs post-scratch) was “about 35%”. In addition, in the data set on hLEC migration (8 μM, hLEC, 72 hrs post-scratch), the “hLEC migration reduced to” value is on record as “about 50%”. Also, in data set [4], the “inhibition of angiogenesis in Notch-expressing HUVECs” value was “effective in inhibiting angiogenesis”, the “number of branch points per field” value is “significantly reduced” and the “network formation by HUVEC” value is given as “dramatically reduced”.
